Data: the kinase profiling compilation of Christmann-Franck et al. (2016)

Legend:
Experiment in all cases: KINOMEscan competition binding
Conditions in all cases: compound 0.5 µM
ACVR1 (human) = ACVR1 (human) (UniProt Q04771)
AURKB (human) = AURKB (human) (UniProt Q96GD4)
BMP2K (human) = BMP2K (human) (UniProt Q9NSY1)
BRAF (human) = BRAF (human) (UniProt P15056)
CAMK2G (human) = CAMK2G (human) (UniProt Q13555)
CDC42BPG (human) = CDC42BPG (human) (UniProt Q6DT37)
CDK19 (human) = CDK19 (human) (UniProt Q9BWU1)
Chain of CDK19 (human) (Q9BWU1 whole entry, looked up): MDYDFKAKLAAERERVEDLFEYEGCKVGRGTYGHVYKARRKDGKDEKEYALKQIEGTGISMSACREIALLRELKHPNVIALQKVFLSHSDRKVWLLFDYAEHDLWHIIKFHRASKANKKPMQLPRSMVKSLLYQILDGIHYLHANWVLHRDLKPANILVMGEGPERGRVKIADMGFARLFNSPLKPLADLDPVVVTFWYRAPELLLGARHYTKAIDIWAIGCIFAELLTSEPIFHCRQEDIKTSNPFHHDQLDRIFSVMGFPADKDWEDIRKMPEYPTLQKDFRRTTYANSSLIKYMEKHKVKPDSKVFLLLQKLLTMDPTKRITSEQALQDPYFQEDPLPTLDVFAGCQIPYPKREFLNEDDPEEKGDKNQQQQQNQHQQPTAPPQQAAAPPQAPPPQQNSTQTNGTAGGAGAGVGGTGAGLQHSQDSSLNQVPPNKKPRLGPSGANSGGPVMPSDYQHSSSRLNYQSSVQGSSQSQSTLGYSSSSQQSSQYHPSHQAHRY

CDK4 CCND1 (human) = CDK4 CCND1 (human) (UniProt P11802+P24385)
Chain of CDK4 CCND1 (human) (P11802 whole entry, looked up): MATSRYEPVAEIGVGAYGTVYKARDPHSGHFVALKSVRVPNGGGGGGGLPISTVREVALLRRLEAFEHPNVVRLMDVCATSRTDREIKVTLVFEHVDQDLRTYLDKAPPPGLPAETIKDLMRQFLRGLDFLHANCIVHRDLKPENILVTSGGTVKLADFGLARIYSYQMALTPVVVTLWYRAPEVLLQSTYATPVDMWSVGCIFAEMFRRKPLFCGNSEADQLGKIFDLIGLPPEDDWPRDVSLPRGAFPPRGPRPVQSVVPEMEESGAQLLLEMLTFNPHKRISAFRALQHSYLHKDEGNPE
Chain of CDK4 CCND1 (human) (P24385 whole entry, looked up): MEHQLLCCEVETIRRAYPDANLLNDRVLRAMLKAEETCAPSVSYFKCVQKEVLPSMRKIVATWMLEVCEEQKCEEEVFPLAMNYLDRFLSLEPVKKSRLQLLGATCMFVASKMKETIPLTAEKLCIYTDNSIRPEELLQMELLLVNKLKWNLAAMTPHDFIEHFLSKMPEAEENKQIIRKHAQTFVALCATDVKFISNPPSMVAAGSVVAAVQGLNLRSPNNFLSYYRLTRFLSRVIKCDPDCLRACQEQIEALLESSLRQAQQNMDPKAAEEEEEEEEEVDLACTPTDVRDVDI

CDKL5 (human) = CDKL5 (human) (UniProt O76039)
CSF1R (human) = CSF1R (human) (UniProt P07333)
[1] = test system: FLT3 (human), P36888 [R834Q]
GSK3A (human) = GSK3A (human) (UniProt P49840)
Chain of GSK3A (human) (P49840 whole entry, looked up): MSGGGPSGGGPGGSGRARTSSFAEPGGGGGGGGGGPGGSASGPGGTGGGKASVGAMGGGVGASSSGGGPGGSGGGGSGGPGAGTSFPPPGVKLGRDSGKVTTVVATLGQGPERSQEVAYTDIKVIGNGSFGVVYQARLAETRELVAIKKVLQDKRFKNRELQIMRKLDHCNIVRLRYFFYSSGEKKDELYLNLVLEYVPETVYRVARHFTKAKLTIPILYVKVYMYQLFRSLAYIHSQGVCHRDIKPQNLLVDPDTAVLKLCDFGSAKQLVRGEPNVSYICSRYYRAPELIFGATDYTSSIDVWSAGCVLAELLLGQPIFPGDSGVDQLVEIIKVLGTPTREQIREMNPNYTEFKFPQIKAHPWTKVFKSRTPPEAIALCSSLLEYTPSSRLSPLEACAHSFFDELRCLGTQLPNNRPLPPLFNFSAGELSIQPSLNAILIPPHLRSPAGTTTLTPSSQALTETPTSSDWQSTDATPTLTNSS

ITK (human) = ITK (human) (UniProt Q08881)
[2] = test system: KIT (human), P10721 [D816V]
LATS2 (human) = LATS2 (human) (UniProt Q9NRM7)
MAK (human) = MAK (human) (UniProt P20794)
MAP2K4 (human) = MAP2K4 (human) (UniProt P45985)
MAP3K12 (human) = MAP3K12 (human) (UniProt Q12852)
Chain of MAP3K12 (human) (Q12852 whole entry, looked up): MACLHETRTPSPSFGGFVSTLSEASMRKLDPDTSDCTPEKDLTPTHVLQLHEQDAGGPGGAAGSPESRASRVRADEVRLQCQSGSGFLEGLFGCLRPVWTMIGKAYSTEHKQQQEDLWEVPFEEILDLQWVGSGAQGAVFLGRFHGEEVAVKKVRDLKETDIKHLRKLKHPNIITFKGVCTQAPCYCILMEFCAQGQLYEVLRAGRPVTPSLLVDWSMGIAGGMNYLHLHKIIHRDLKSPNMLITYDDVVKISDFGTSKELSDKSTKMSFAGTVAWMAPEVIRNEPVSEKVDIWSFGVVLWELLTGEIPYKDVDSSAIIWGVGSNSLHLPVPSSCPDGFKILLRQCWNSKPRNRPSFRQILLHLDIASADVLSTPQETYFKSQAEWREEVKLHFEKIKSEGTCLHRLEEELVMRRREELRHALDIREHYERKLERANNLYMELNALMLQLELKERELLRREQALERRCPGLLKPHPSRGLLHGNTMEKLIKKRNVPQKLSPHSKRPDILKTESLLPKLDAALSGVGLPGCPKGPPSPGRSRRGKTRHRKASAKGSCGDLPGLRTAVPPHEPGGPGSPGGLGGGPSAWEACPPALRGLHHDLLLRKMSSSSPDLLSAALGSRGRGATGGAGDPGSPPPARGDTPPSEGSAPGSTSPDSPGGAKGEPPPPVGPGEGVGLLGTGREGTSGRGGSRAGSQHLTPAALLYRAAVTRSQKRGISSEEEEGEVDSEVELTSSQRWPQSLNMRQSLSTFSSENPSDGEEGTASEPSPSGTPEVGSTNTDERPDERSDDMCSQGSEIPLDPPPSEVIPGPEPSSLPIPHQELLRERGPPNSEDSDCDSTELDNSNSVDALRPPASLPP

MAP3K15 (human) = MAP3K15 (human) (UniProt Q6ZN16)
MAP3K5 (human) = MAP3K5 (human) (UniProt Q99683)
MAP4K4 (human) = MAP4K4 (human) (UniProt O95819)
MAPK13 (human) = MAPK13 (human) (UniProt O15264)
MAPK15 (human) = MAPK15 (human) (UniProt Q8TD08)
MATK (human) = MATK (human) (UniProt P42679)
MET (human) = MET (human) (UniProt P08581)
Chain of MET (human) (P08581 whole entry, looked up): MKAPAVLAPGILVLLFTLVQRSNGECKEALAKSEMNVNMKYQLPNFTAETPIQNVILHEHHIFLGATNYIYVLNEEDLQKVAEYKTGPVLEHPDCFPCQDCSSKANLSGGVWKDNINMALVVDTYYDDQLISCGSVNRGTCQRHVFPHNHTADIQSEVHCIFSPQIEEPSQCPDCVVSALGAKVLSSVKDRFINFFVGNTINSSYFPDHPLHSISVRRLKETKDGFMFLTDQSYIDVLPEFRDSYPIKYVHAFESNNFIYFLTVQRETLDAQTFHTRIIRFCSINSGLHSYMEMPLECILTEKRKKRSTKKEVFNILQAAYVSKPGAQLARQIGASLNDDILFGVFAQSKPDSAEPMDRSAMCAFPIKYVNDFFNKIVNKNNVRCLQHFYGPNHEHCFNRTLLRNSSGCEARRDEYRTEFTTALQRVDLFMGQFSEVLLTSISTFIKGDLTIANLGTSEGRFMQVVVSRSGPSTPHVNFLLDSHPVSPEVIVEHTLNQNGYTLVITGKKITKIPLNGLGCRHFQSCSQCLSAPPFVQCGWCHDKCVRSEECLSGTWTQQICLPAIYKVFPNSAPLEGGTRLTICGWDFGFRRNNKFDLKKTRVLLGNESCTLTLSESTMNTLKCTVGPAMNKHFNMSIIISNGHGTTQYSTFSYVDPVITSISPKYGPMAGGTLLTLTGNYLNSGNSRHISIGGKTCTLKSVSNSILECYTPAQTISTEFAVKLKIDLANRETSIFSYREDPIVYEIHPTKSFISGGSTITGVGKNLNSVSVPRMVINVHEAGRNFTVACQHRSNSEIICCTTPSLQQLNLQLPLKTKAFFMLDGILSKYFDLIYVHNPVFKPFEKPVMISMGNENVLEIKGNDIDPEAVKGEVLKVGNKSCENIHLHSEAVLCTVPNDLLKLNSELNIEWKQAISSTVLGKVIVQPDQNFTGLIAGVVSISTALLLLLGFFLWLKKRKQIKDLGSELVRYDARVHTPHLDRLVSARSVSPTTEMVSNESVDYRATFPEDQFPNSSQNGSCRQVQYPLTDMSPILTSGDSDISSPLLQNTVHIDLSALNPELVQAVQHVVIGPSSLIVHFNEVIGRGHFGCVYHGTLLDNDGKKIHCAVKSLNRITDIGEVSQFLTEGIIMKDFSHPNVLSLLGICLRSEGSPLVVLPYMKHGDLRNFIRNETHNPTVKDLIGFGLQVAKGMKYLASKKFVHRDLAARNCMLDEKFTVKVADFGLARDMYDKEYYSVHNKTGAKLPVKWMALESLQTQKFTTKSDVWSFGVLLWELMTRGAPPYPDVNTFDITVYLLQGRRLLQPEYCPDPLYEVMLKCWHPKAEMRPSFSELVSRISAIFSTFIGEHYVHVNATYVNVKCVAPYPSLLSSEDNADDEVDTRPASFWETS

MUSK (human) = MUSK (human) (UniProt O15146)
NEK11 (human) = NEK11 (human) (UniProt Q8NG66)
[3] = test system: PIK3CA (human), P42336 [E545K]
PIP4K2B (human) = PIP4K2B (human) (UniProt P78356)
PIP4K2C (human) = PIP4K2C (human) (UniProt Q8TBX8)
PRKCE (human) = PRKCE (human) (UniProt Q02156)
PRKD3 (human) = PRKD3 (human) (UniProt O94806)
RIPK2 (human) = RIPK2 (human) (UniProt O43353)
ROS1 (human) = ROS1 (human) (UniProt P08922)
RPS6KA2 KD2 (human) = RPS6KA2 KD2 (human) (UniProt Q15349)
SLK (human) = SLK (human) (UniProt Q9H2G2)
SRPK1 (human) = SRPK1 (human) (UniProt Q96SB4)
Chain of SRPK1 (human) (Q96SB4 whole entry, looked up): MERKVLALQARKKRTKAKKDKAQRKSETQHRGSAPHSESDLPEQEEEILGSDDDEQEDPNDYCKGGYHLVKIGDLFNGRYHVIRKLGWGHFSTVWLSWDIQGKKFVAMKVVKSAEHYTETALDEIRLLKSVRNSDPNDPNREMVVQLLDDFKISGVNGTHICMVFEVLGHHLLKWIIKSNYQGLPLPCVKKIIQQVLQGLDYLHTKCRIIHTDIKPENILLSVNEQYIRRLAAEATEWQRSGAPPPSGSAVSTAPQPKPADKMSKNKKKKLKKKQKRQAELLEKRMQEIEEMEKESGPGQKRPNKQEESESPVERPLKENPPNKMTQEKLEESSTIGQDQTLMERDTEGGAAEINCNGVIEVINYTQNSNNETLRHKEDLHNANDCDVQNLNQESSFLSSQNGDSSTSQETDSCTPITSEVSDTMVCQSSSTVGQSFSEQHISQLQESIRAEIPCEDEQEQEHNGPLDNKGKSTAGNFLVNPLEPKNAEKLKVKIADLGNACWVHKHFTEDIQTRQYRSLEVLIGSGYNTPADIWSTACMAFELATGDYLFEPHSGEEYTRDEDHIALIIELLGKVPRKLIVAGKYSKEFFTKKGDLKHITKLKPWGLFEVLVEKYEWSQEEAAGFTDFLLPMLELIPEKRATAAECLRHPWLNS

TGFBR1 (human) = TGFBR1 (human) (UniProt P36897)
TNNI3K (human) = TNNI3K (human) (UniProt Q59H18)
TXK (human) = TXK (human) (UniProt P42681)
WEE1 (human) = WEE1 (human) (UniProt P30291)

Chain of CAMK2G (human) (Q13555 whole entry, looked up): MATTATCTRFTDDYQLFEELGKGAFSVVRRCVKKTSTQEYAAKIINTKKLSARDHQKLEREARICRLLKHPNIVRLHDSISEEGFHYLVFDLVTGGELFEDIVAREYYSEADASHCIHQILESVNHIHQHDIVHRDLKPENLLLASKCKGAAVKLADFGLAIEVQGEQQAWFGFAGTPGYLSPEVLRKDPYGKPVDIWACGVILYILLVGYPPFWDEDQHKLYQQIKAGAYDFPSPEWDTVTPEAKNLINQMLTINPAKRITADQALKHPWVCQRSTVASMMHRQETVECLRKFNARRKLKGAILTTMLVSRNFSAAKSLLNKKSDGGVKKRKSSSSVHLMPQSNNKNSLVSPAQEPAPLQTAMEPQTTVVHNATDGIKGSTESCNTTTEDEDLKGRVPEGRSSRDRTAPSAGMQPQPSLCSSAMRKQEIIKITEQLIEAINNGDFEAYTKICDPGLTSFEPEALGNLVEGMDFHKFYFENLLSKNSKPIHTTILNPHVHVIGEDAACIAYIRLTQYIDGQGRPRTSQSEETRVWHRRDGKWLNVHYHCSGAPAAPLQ

Cn1c2ccccc2c2c3c(c4c5ccccc5n(CCC#N)c4c21)CNC3=O
kinase still bound, per cent of control (ACVR1 (human)): 21%
kinase still bound, per cent of control (AURKB (human)): 32%
kinase still bound, per cent of control (BMP2K (human)): 3.4%
kinase still bound, per cent of control (BRAF (human)): 100%
kinase still bound, per cent of control (CAMK2G (human)): 41%
kinase still bound, per cent of control (CDC42BPG (human)): 100%
kinase still bound, per cent of control (CDK19 (human)): 91%
kinase still bound, per cent of control (CDK4 CCND1 (human)): 57%
kinase still bound, per cent of control (CDKL5 (human)): 10%
kinase still bound, per cent of control (CSF1R (human)): 37%
kinase still bound, per cent of control [1]: 12%
kinase still bound, per cent of control (GSK3A (human)): 100%
kinase still bound, per cent of control (ITK (human)): 40%
kinase still bound, per cent of control [2]: 2%
kinase still bound, per cent of control (LATS2 (human)): 36%
kinase still bound, per cent of control (MAK (human)): 100%
kinase still bound, per cent of control (MAP2K4 (human)): 1.2%
kinase still bound, per cent of control (MAP3K12 (human)): 89%
kinase still bound, per cent of control (MAP3K15 (human)): 97%
kinase still bound, per cent of control (MAP3K5 (human)): 56%
kinase still bound, per cent of control (MAP4K4 (human)): 2.2%
kinase still bound, per cent of control (MAPK13 (human)): 100%
kinase still bound, per cent of control (MAPK15 (human)): 0.45%
kinase still bound, per cent of control (MATK (human)): 67%
kinase still bound, per cent of control (MET (human)): 88%
kinase still bound, per cent of control (MUSK (human)): 100%
kinase still bound, per cent of control (NEK11 (human)): 100%
kinase still bound, per cent of control [3]: 100%
kinase still bound, per cent of control (PIP4K2B (human)): 2%
kinase still bound, per cent of control (PIP4K2C (human)): 75%
kinase still bound, per cent of control (PRKCE (human)): 66%
kinase still bound, per cent of control (PRKD3 (human)): 2.8%
kinase still bound, per cent of control (RIPK2 (human)): 100%
kinase still bound, per cent of control (ROS1 (human)): 1.8%
kinase still bound, per cent of control (RPS6KA2 KD2 (human)): 100%
kinase still bound, per cent of control (SLK (human)): 69%
kinase still bound, per cent of control (SRPK1 (human)): 5.6%
kinase still bound, per cent of control (TGFBR1 (human)): 79%
kinase still bound, per cent of control (TNNI3K (human)): 100%
kinase still bound, per cent of control (TXK (human)): 11%
kinase still bound, per cent of control (WEE1 (human)): 100%
